What all share (assay): MIC, serial dilution test in the microtiter system
Assay type in all cases: cell-based

One experiment has as its system streptococcus aronson. The settings on record: 18 h, strept. aronson, 1% glucose added, 37° C., 18-20 hours. As to the method:
(§1) The tests were performed according to the method of the serial dilution test in the microtiter system. The effect of the substances on bacteriostasis was examined in a fluid medium. The activity on bacteriostatis was examined at the following concentrations:
(§2) 10 gm of peptone, 8 gm of meat extract-oxoid, 3 gm of sodium chloride, 2 gm of sec. sodium phosphate were diluted with distilled water to 1000 ml (pH 7.2-7.4). Only in the test against streptococci 1% of glucose was added. The age of the primary cultures was about 20 hours. The standardizations of the pathogen suspension was effected by using a photometer according to "Eppendorf" (test tube diameter 14 mm, filter 546 nm) with the aid of the turbidity of a comparison suspension consisting of barium sulfate, this suspension being prepared by addition of 3.0 ml of 1% barium chloride solution to 97 ml of 1% sulfuric acid. After the standardization, streptococcus aronson were further diluted to a concentration of 1:15 and the other germs to a concentration of 1:1500 by menas of a sodium chloride solution.
(§3) 16 mg of the test substance were put into a 10 ml measuring flask and filled up to the mark with the solvent. The further dilution series was standardized with distilled water or the respective solvent.
(§4) The cavities of the microtiter plates were filled with 0.2 ml of nutrient medium. Then, 0.01 ml of the corresponding test substance dilution was added and inoculated with 0.01 ml of the standardized suspension. The bacteria were incubated at 37° C. for 18-20 hours. Control tests merely using the solvent were carried out simultaneously.
(§5) The measurement was carried out macroscopically to determine the minimal inhibitory (threshold) concentration, i.e. the lowest still bacteriostatically effective concentration.
(§6) Staphylococcus aureus SG 511, streptococcus aronson, streptococcus faecalis ATCC 10541, escherichia coli ATCC 9637, 11 775 and escherichia coli 12593/74 (β-lactamase carrier), pseudomonas aeruginosa hamburgensis and ATCC 10145, serratia marcescens ATCC 13 880, klebsiella pneumoniae ATCC 10 031 and 272 and proteus mirabilis hamburgensis.

For experiment [1], the system named is escherichia coli 12593/74 (β-lactamase carrier). The settings on record: 18 h, E. coli 12593/74 (β-lactamase carrier), 37° C., 18-20 hours. As to the method:
as §1, §2, §3, §4, §5, §6

Experiment [2] has as its system klebsiella pneumoniae ATCC 10 031. The settings on record: 18 h, klebs pneum ATCC 10031, 37° C., 18-20 hours. As to the method: as §1, §2, §3, §4, §5, §6
Experiment [3] concerns escherichia coli ATCC 11775. The settings on record: ATCC11775, 18 h, E. coli ATCC 11775, 37° C., 18-20 hours. As to the method:
as §1, §2, §3, §4, §5, §6

For experiment [4], the system named is proteus mirabilis hamburgensis. To be noted: 18 h, prot. mirabilis, 37° C., 18-20 hours. As to the method: as §1, §2, §3, §4, §5, §6
The subject of experiment [5] is klebsiella pneumoniae 272. The settings on record: 18 h, klebs pneum. 272, 37° C., 18-20 hours. As to the method: as §1, §2, §3, §4, §5, §6
Experiment [6] has as its system serratia marcescens ATCC 13 880. To be noted: ATCC13, 18 h, serrat marcesc., 37° C., 18-20 hours. As to the method:
as §1, §2, §3, §4, §5, §6

Experiment [7] concerns streptococcus faecalis ATCC 10541. To be noted: Enterococcus faecalis, ATCC10541, 18 h; strept. faecal.; 37° C., 18-20 hours. As to the method:
as §1, §2, §3, §4, §5, §6

Experiment [8] has as its system pseudomonas aeruginosa ATCC 10145. The settings on record: ATCC10145, 18 h, pseud. aerug. ATCC 10145, 37° C., 18-20 hours. As to the method: as §1, §2, §3, §4, §5, §6
The subject of experiment [9] is escherichia coli ATCC 9637. To be noted: ATCC9637, 18 h, E. coli ATCC 9637, 37° C., 18-20 hours. As to the method:
as §1, §2, §3, §4, §5, §6

Experiment [10] has as its system pseudomonas aeruginosa hamburgensis. The settings on record: 18 h, pseud. aerug. hamb., 37° C., 18-20 hours. As to the method:
as §1, §2, §3, §4, §5, §6

The test system of experiment [11] is Staphylococcus aureus SG 511. To be noted: SG511, 18 h, Staph. Aureus SG 511, 37° C., 18-20 hours. As to the method: as §1, §2, §3, §4, §5, §6

In brackets after ≈: the same amount, converted by molar mass. Where only a bound is given, the exact number is not on record here.

One may read the MIC as the smallest concentration in the dilution series that meets the test's criterion for growth inhibition. High values mean a need for much substance, low ones inhibition by little substance. As to `CC1(C)S[C@@H]2[C@H](NC(=O)[C@H](NC(=O)Nc3cnc(Nc4ccc(Cl)c(Cl)c4)nc3O)c3ccc(O)cc3)C(=O)N2[C@H]1C(=O)O` [J, D-α-[3-(2-m,p-dichloroanilino-4-hydroxy-5-pyrimidyl)-ureido]-p-hydroxybenzyl-penicillin sodium], the MIC with streptococcus aronson was determined as 0.02 µg/mL; in experiment [1], 10 µg/mL; in experiment [2], 2.5 µg/mL; in experiment [3] it was 0.6 µg/mL; in experiment [4], 0.6 µg/mL; in [5], 2.5 µg/mL. In addition, the MIC in [6] came to 0.6 µg/mL; in experiment [7], 2.5 µg/mL; in [8], 2.5 µg/mL; in experiment [9], 1.25 µg/mL; in [10], 2.5 µg/mL.
For the molecule `CC1(C)S[C@@H]2[C@H](NC(=O)[C@H](NC(=O)Nc3cnc(N4CCOCC4)nc3O)c3ccc(O)cc3)C(=O)N2[C@H]1C(=O)O` [K, D-α-[3-(4-hydroxy-2-morpholiono-5-pyrimidyl)-ureido]-p-hydroxybenzyl-penicillin sodium], the MIC in the experiment with streptococcus aronson is 0.3 µg/mL; in experiment [1], greater than 80 µg/mL; in experiment [11], 1.25 µg/mL; in experiment [2], greater than 80 µg/mL; in experiment [3], 2.5 µg/mL; in experiment [4], 1.25 µg/mL. For the same molecule, the MIC in experiment [5] is 80 µg/mL; in [6], 5 µg/mL; in [7] it was 10 µg/mL; in experiment [8], 1.25 µg/mL; in experiment [9], 2.5 µg/mL; in [10], 2.5 µg/mL.
Turning to `CC1(C)S[C@@H]2[C@H](NC(=O)[C@H](NC(=O)Nc3cnc(NC4CCCCC4)nc3O)c3ccc(O)cc3)C(=O)N2[C@H]1C(=O)O` [L, D-α-[3-(2-cyclohexylamino-4-hydroxy-5-pyrimidyl)-ureido]-p-hydroxybenzyl-penicillin sodium], the MIC against streptococcus aronson was 0.08 µg/mL; in experiment [1], greater than 80 µg/mL; in experiment [11], 0.3 µg/mL; in experiment [2], 20 µg/mL; in experiment [3], 1.25 µg/mL; in experiment [4] it was 0.6 µg/mL. In addition, the MIC stood at 10 µg/mL in [5]; 1.25 µg/mL in [6]; 5 µg/mL in experiment [7]; 2.5 µg/mL in experiment [8]; 0.6 µg/mL in experiment [9]; 2.5 µg/mL in experiment [10].
`CN(C)C(=O)Nc1ncc(NC(=O)N[C@@H](C(=O)N[C@@H]2C(=O)N3[C@@H]2SC(C)(C)[C@@H]3C(=O)O)c2ccc(O)cc2)c(O)n1` [M]: the MIC in the experiment with streptococcus aronson was 0.3 µg/mL (≈ 0.51 µM); in experiment [1] it was greater than 80 µg/mL; in experiment [11], 1.25 µg/mL (≈ 2.12 µM); in [2], greater than 80 µg/mL; in experiment [3], 2.5 µg/mL (≈ 4.25 µM); in [4], 2.5 µg/mL (≈ 4.25 µM). The MIC was greater than 80 µg/mL in experiment [5]; 10 µg/mL (≈ 17 µM) in experiment [6]; 80 µg/mL (≈ 136 µM) in experiment [7]; 5 µg/mL (≈ 8.49 µM) in experiment [8]; 10 µg/mL (≈ 17 µM) in experiment [9]; 5 µg/mL (≈ 8.49 µM) in experiment [10].
As to `CNc1ncc(NC(=O)N[C@@H](C(=O)N[C@@H]2C(=O)N3[C@@H]2SC(C)(C)[C@@H]3C(=O)O)c2ccc(O)cc2)c(O)n1` [N, D-α-[3-(4-hydroxy-2-methylamino-5-pyrimidyl)-ureido]-p-hydroxybenzyl-penicillin sodium], the MIC in the experiment with streptococcus aronson was 0.08 µg/mL; in experiment [1], greater than 80 µg/mL; in experiment [11], 0.3 µg/mL; in experiment [2], 80 µg/mL; in experiment [3], 2.5 µg/mL; in experiment [4], 0.3 µg/mL. The MIC came out at 40 µg/mL in experiment [5]; 5 µg/mL in experiment [6]; 10 µg/mL in [7]; 2.5 µg/mL in experiment [8]; 2.5 µg/mL in experiment [9]; 2.5 µg/mL in [10].
As to `CC1(C)S[C@@H]2[C@H](NC(=O)[C@H](NC(=O)Nc3cnc(NCc4ccc(Cl)cc4)nc3O)c3ccc(O)cc3)C(=O)N2[C@H]1C(=O)O` [O, D-α-[3-(2-p-chlorobenzylamino-4-hydroxy-5-pyrimidyl)-ureido]-p-hydroxybenzyl-penicillin sodium], the MIC turned out to be 0.02 µg/mL against streptococcus aronson; 80 µg/mL in [1]; 0.3 µg/mL in experiment [11]; 20 µg/mL in [2]; 0.65 µg/mL in experiment [3]; 0.3 µg/mL in experiment [4]. Moreover, the MIC in experiment [5] stood at 10 µg/mL; in [6], 1.25 µg/mL; in experiment [7], 10 µg/mL; in experiment [8], 5 µg/mL; in experiment [9], 0.3 µg/mL; in [10] it was 10 µg/mL.
As for `CCCNc1ncc(NC(=O)N[C@@H](C(=O)N[C@@H]2C(=O)N3[C@@H]2SC(C)(C)[C@@H]3C(=O)O)c2ccc(O)cc2)c(O)n1` [P, D-α-[3-(4-hydroxy-2-propylamino-5-pyrimidyl)-ureido]-p-hydroxybenzyl-penicillin sodium], the minimal inhibitory concentration (MIC) worked out at 0.08 µg/mL with streptococcus aronson; 80 µg/mL in experiment [1]; 0.3 µg/mL in experiment [11]; 10 µg/mL in experiment [2]; 1.25 µg/mL in [3]; 0.08 µg/mL in [4]. In addition, the MIC was 10 µg/mL in experiment [5]; 1.25 µg/mL in experiment [6]; 5 µg/mL in experiment [7]; 1.25 µg/mL in experiment [8]; 1.25 µg/mL in [9]; 2.5 µg/mL in experiment [10].
Regarding `CC1(C)S[C@@H]2[C@H](NC(=O)[C@H](NC(=O)N3CCN(S(C)(=O)=O)C3=O)c3ccccc3)C(=O)N2[C@H]1C(=O)O` [R, reference compound], the MIC in experiment [3] was 5 µg/mL (≈ 9.27 µM); in experiment [8], 20 µg/mL (≈ 37.1 µM); in experiment [9], 10 µg/mL (≈ 18.5 µM); in [10] it was 40 µg/mL (≈ 74.1 µM).
For `CC1(C)S[C@@H]2[C@H](NC(=O)[C@H](NC(=O)Nc3cnccc3O)c3ccccc3)C(=O)N2[C@H]1C(=O)O` [S, D-α-[(4-hydroxy-3-pyridyl)-ureido]benzylpenicillin sodium, reference compound] the same measures were 2.5 µg/mL, 20 µg/mL, 10 µg/mL and 20 µg/mL.

These data come from US4241056A, “Penicillins and salts thereof” (Boehringer Ingelheim GmbH, priority 1978, dated 1980).
